Experimental data reported in US9907306B2, “Compositions and methods for controlling nematode pests” (Monsanto Technology LLC, priority 2010, dated 2018).

What was measured:
[1] = system: soybean cyst nematode (SCN); experiment: SCN greenhouse soil assay on soybean plants; type: in vivo, H. glycines; conditions: 0 day treatment, 0.25 kg/ha rate, harvested 28 days after egg inoculation
Source text: Soybeans seeds are planted in 100% sand in two inch square plastic pots.
Chemical treatment is done when the soybeans show the first trifoliate beginning to emerge about 10 to 12 days after planting. At least four hours after chemical application the nematode soybean cyst nematode (SCN) eggs are applied and 28 days after the egg inoculation the test is harvested.
(§1) One milligram of chemistry per four pots is equal to one kilogram per hectare of chemical. A standard test uses four replications. For rates above 2 kg/ha, the desired amount of chemical is weighed into a 30 ml vial (example: 8 kg/ha rate=8 mg chemical in 30 ml vial). The chemical is dissolved in 2 ml of appropriate solvent, generally acetone. For rates below 2 kg/ha, 2 milligrams of chemistry is weighed into the vial and dissolved in 2 ml of the solvent. The appropriate amount of chemical concentrate is then pipetted into a separate 30 ml vial and solvent is added to bring the volume to 2 ml (example 0.5 kg/ha=0.5 ml of concentrate+1.5 ml solvent). Each dissolved concentrate is then brought to a total of 20 milliliters using 0.05% Triton X 100 surfactant solution.
(§2) Pots to be treated are moist but not saturated. To each of four pots, five milliliters of the appropriate chemical solution is pipetted to the media surface making sure to avoid contact with the base of the plant. Immediately following chemical application, using a mist nozzle, the pot surface is wetted sufficiently to saturate the pot watering in the chemistry. The chemical application is done in the morning.
(§3) Nematode eggs, either SCN or RKN, are added to distilled water to create a concentration of […] of water. At least four hours after chemical treatment (0 day testing) or 1 week later (7 day longevity testing) the eggs are applied to the treated pots plus non-treated check plants. A small hole about 1 cm deep is punched into the pot surface. One milliliter of the nematode egg slurry is pipetted into the hole. Immediately afterwards the hole is gently covered. Watering of the test plants is then restricted to only water as needed to prevent wilt for a period of 24 hours. After the 24 hour restricted watering, normal sub-irrigation watering is done for the duration of the test.

[2] = classification by the US Environmental Protection Agency; cited from earlier work
Meloidogyne incognita = experiment: M. incognita miniaturized greenhouse assay (cucumber seedling in sand, root galling); type: in vivo; conditions: average of triplicate gall rating, scale 0=0-5%, 1=6-20%, 2=21-50%, 3=51-100% root mass galled, 10 to 12 days after inoculation
Protocol: The test compound is dissolved in an acetone solution and added to water. A sprouted cucumber seedling is placed into a vial with dry sand and the water-chemical solution is added immediately. Twenty four hours later Meloidogyne incognita eggs are added to the vials and 10 to 12 days later the roots are evaluated for nematode galling.
Cucumber seeds are sprouted for 3 days in moist paper towels. Acceptable sprouts should be 3 to 4 cm long with several lateral roots just emerging. Stock solutions of chemistry are prepared in a mixture of acetone and Triton X100 (412 mg in 500 mL) to a final concentration of 5 mg/mL. The chemical stock solution is then added to 10 mL deionized water plus 0.015% Triton X100 and mixed thoroughly. This is enough to test each condition in triplicate. Ten mL dry sand is added to each vial. At this time the solubility of the chemistry is visually determined and recorded as either ppt (large precipitates) or cloudy (fine precipitates). Seedlings are planted by tilting the vial and laying the seedling in the correct orientation so that the cotyledons are just above the sand and then tilting back to cover the radicles with sand. 3.3 ml water/chemical mix is added to each vial and the vials placed in racks under fluorescent light banks. The vials are inoculated two days after planting by adding 500 vermiform M. incognita eggs to each vial in 50 uL of deionized or spring water. The vials are then kept under the fluorescent lamps at ambient room temperature and watered as needed with 1 mL deionized water, usually twice during duration of test. Harvest of the cucumber plants is done 10 to 12 days after inoculation by washing sand off the roots. A root gall rating and visual phytotoxicity rating is assigned using the following scales: Gall rating scale (Gall: % root mass galled): 0=0-5%; 1=6-20%; 2=21-50%; and 3=51-100%. The average of the triplicate gall rating is then calculated: green=0.00-0.33 (no galls); yellow=0.67-1.33 (mild galling); orange=1.67-2.33 (moderate galling); red=2.67-3.00 (severe galling). Visual phytotoxicity scale is also assigned (Vis. tox; visual reduction in root mass compared to the control): rs1=mild stunting; rs2=moderate stunting; rs3=severe stunting.

H. contortus = H. contortus larval development assay; type: cell-based; conditions: at 72 hours; hatching and larval movement
Protocol: The assay was performed essentially as described in: Hubert J, Kerboeuf D. A new method for culture of larvae used in diagnosis of ruminant gastrointestinal strongylosis: comparison with fecal cultures. Can J Comp Med. 1984 48(1):63-71. H. contortus eggs were obtained from Myers Parasitology (Magnolia, Ky.). The test compounds were solubilized in DMSO to create […] stock solutions. 2 ul of compound at various concentrations followed by 200 ul of molten agar were mixed into the wells. Approximately 50 eggs were placed in the well and incubated for 24 hours. After this time, >50% of the eggs were hatched in DMSO controls. After 24 hr, 100 ul of growth medium (Earle's salt solution, 1% yeast extract, 0.9% saline, and sodium bicarbonate to pH 7) containing compound was added to allow larval feeding. After 48 hr in growth medium (total of 72 hours) the wells were evaluated for hatching and larval movement.

C. elegans = C. elegans well test (contact assay); type: cell-based; conditions: L1 worms, 20° C.
Protocol: C. elegans: Various compounds were tested for nematicidal activity against C. elegans using contact assays in wells. The assays were performed as described below. The test compounds were solubilized in DMSO at 10 mg/ml to create 100× stock solutions. A dilution series was created by diluting the stock solution with DMSO. For each well assay 4 ul of the appropriate dilution is added to a well of a test plate. A 400 ul aliquot of bacterial stock (in M9 buffer with ampicillin) is added to each well of the test plate. Worms are added and the test plate placed on a rotary shaker incubated at 20° C. Worms are examined and scored at 24 hrs, 48 hrs and 72 hours. L1 worms used in the assay are prepared by plating eggs on a plate without a bacterial feeding layer. The eggs hatch and arrest at the L1 stage. This L1 stage population is then used to create a stock for the experiments. A 25 ul aliquot of worms is added to each well in the assay.

root knot nematode (RKN) = experiment: RKN greenhouse soil assay on cucumber plants; type: in vivo, M. incognita; conditions: 7 day treatment, rated 14 days after egg inoculation
Source text: Cucumber seeds are planted in a sandy soil mixture in two inch square plastic pots. When the cotyledons are fully opened and just as the first leaf begins to emerge, usually 7 days after planting, chemistry for the 7-day treatment is applied. One week later the chemistry for the 0 day treatment is applied. Separate plants are used for each application. The plants are generally in the 1-2 leaf stage now. At least four hours after the chemistry application the pots are inoculated with root knot nematode (RKN) eggs. Plants are rated for galling 14 days after the egg inoculation.
as §1, §2, §3

[3] = 1 ppm, letters a-d mark separate tests

CNC(=O)O/N=C(\SC)C(=O)N(C)C [Oxamyl, reference compound]
percent control (cyst reduction) relative to the control blank treatment [1]: 75%^ | toxicity class [2]: Class I

c1ccc(-n2nnc(-n3cccc3)n2)cc1 [compound 7]
gall ratings (Meloidogyne incognita; [3]): 1.67 | gall ratings (Meloidogyne incognita; 8 ppm): 0.33

Cn1cccc1-c1nnn(-c2ccccc2)n1 [compound 5]
gall ratings (Meloidogyne incognita; [3]): 2.33 | gall ratings (Meloidogyne incognita; 8 ppm): 0.00

Cc1cc(Cl)ccc1-n1nnc(-c2ccco2)n1 [compound 3]
percent control (cyst reduction) relative to the control blank treatment [1]: 44%^ | gall ratings (Meloidogyne incognita; [3]): 1.33 | gall ratings (Meloidogyne incognita; 8 ppm): 0 | EC50 (H. contortus): <6.3 ppm | EC50 (C. elegans; 1 day): 0.8/0.8/0.8 ppm | EC50 (C. elegans; 2 days): 0.8/0.8/0.8 ppm | EC50 (C. elegans; 3 days): 0.8/0.8/0.8 ppm

c1ccc(-c2nnn(-c3cccs3)n2)cc1 [compound 6]
gall ratings (Meloidogyne incognita; [3]): 1.33 | gall ratings (Meloidogyne incognita; 8 ppm): 0.00

c1ccc(-n2nnc(-c3cccs3)n2)cc1 [compound 2]
percent control (galling reduction) relative to the control blank treatment (root knot nematode (RKN); 0.1 kg/ha rate): 47% | percent control (galling reduction) relative to the control blank treatment (root knot nematode (RKN); 0.25 kg/ha rate): 53% | percent control (cyst reduction) relative to the control blank treatment [1]: 52%^ | gall ratings (Meloidogyne incognita; [3]): 0.67 | gall ratings (Meloidogyne incognita; 8 ppm): 0.33 | EC50 (H. contortus): 6.3-25 ppm | EC50 (C. elegans; 1 day): > 50 ppm | EC50 (C. elegans; 2 days): 0.8 ppm | EC50 (C. elegans; 3 days): 0.8 ppm

Clc1ccc(-n2nnc(N3CCCC3)n2)cc1 [compound 4]
gall ratings (Meloidogyne incognita; [3]): 1.33 | gall ratings (Meloidogyne incognita; 8 ppm): 0.33

Clc1ccc(-n2nnc(-c3cccs3)n2)cc1 [compound 1]
percent control (galling reduction) relative to the control blank treatment (root knot nematode (RKN); 0.1 kg/ha rate): 89% | percent control (galling reduction) relative to the control blank treatment (root knot nematode (RKN); 0.25 kg/ha rate): 92% | percent control (cyst reduction) relative to the control blank treatment [1]: 24%^ | gall ratings (Meloidogyne incognita; [3]): 0.67 | gall ratings (Meloidogyne incognita; 8 ppm): 0 | EC50 (H. contortus): <6.3 ppm | EC50 (C. elegans; 1 day): 0.8 ppm | EC50 (C. elegans; 2 days): 0.8 ppm | EC50 (C. elegans; 3 days): 0.9 ppm
